Like-named read-outs stand apart in the source and are kept apart here.
Assays:
[1] = tested on: Raphanus sativus L. cv. Cherry Belle cotyledons; test: Radish cotyledon bioassay (expansion growth and chlorophyll accumulation); assay type: in vivo; design: Chlorophyll a + b: unit not given here; settings: for Change in fresh weight: continuous illumination, 25° C., ten cotyledons; for activity at 20 µg/mL: Raphanus sativus, read-out: Change in fresh weight, % of control; for cytokinin-like activities (summary of the examples) / ethylene-like activities (summary of the examples): summary statement in the description
Description: Radish cotyledon bioassay: This bioassay using Raphanus sativus L. cv. Cherry Belle cotyledons was developed by Letham, DS (Physiologia Plantarum 25, 391–396, 1971, incorporated by reference in its entirety) to evaluate the efficacy of cytokinin on cell enlargement. Success using this assay is not restricted to radish. […] In addition to their effect on cell division, cytokinin plays a major role in driving cell enlargement. Compounds in this class of phytohormone and with cytokinin activity also help maintain photosynthetic activity and productivity and abolish proteolytic activity. In cotyledon leaf systems, a requirement for cytokinin is critical and removal of the roots (i.e. the presumed source of cytokinin) renders the cotyledon leaves unable to expand. Exposure to cytokinin (0.02–22 μg/ml) results in a dramatic increase in fresh weight of cotyledons within 72 hours. This effect is not observed with either gibberellin or auxin and is usually delayed or inhibited by abscisic acid and the ethylene precursor, 1-aminocyclopropane-1-carboxylic acid (ACC). […] Thus, the mode of action of cytokinin in this system appears to be similar to that of indole-3-acetic acid (IAA) in auxin-induced stem elongation, a process that depends on an increase in the mechanical extensibility of the cell wall. However, cytokinin antagonizes IAA-mediated cell elongation and appears to do so by promoting ethylene production. Furthermore, cytokinin-induced cell expansion is not usually accompanied by proton (H^+) extrusion and no change in plasma membrane ATPase activity is evident.
Seeds of Raphanus sativus L. cv. Cherry-Belle were germinated in darkness at 24° C. for 36 h in Petri dishes containing filter paper wetted with distilled water. The smaller of the two cotyledons was excised, the fresh weight determined, and 10 cotyledons placed adaxial side down on filter paper in Petri dishes containing 10 ml of KPO4 buffer (2 mM, pH 6.0) and the compounds to be tested at 20 mg/l. […] Chlorophyll content was determined after extraction of tissue into 80% ethanol (containing butylated hydroxytoluene (BHT) 10 mg/l) using the equations Chl a=(13.95A663)−(6.88A647) and Chl b=(24.96A652)−(7.32A663) as described by Lichtenthaler, HK, Methods in Enzymology 148: 350–382, 1987, incorporated by reference in its entirety. FIG. 6 illustrates the difference in cotyledon size in response to the cytokinin kinetin.

[2] = tested on: maize roots; test: Corn root bioassay (ethylene production by maize roots); assay type: in vivo, Zea mays L.; settings: for increase of ethylene production (in words): other experiments using a different treatment time; for activity at 20 µg/mL: Zea mays, read-out: Ethylene, % of control; for activity at 20 µg/mL / Ethylene / Ethylene, % of control: 20 mg/l
Description: Corn root bioassay: It is well established that roots of Zea mays produce ethylene when exposed to a variety of stresses (for review, see Morgan, PW and Drew, MC, Physiologia Plantarum 100: 620–630, 1997). Mechanical impedance and hypoxia both induce ethylene formation and usually as early as 1 hour after exposure. In response to ethylene treatment, maize roots show decreased expansion and elongation, a high incidence of cell death and the formation of aerenchyma tissue—particularly evident when roots are exposed to hypoxic conditions (Drew, MC et al., Trends in Plant Science 5: 123–127, 2000, Morgan and Drew 1997).
Seeds of Zea mays L. were sown in flats of Perlite, covered with a layer of vermiculite, and irrigated daily with water and/or 1/10 Hoagland solution. Seedlings were cultivated under continuous illumination at 22–25° C. and used when 7 d old. Seedlings were removed from the Perlite and washed under running tap water. Seedlings were allowed to acclimate in water and/or 1/10 Hoagland solution for several hours before being transferred to Falcon tubes containing the test compounds (all 20 mg/l) prepared in 1/10 Hoagland solution. […] Roots were then transferred to gas-tight tubes each containing 200 μl of water. The tubes were sealed and incubated at 26° C. for 1–2 h in darkness before gas samples were drawn from the incubation tubes using a 1 ml syringe and assayed by gas chromatography (Romera, FJ et al. (1999) Annals of Botany 83, 51–55).

[3] = Table 3, 48 h incubation, 20 mg/l
[4] = Table 2, 72 h incubation, 20 mg/l
[5] = experiment 1, 72 h illumination, roots incubated 2 h in gas tight tubes
[6] = experiment 2, 36 h illumination, roots incubated 2 h in darkness at 24° C.

Structure (SMILES) | Chlorophyll (mg/g FW) a + b ([1]; Experiment 2, 20 mg/l, 48 h) [mg/g FW] | Chlorophyll (μg/cotyledon) a + b ([1]; Experiment 2, 20 mg/l, 48 h) [μg/cotyledon] | Chlorophyll a/b ([1]; Experiment 2, 20 mg/l, 48 h) | Change in fresh weight ([1]; Experiment 2, 20 mg/l, 48 h) [mg] | activity at 20 µg/mL ([1]; Experiment 2, 20 mg/l, 48 h) [%] | hormone-like activity with respect to expansion growth (in words) [1, 3] | cytokinin-like activities (summary of the examples) [1] | ethylene-like activities (summary of the examples) [1] | Chlorophyll a/b ([1]; Experiment 1, 20 mg/l, 72 h) | Change in fresh weight ([1]; Experiment 1, 20 mg/l, 72 h) [mg] | activity at 20 µg/mL ([1]; Experiment 1, 20 mg/l, 72 h) [%] | Ethylene [2, 6] [pmol/g FW/h] | also measured
CCCCC(CC)C(=O)NCCO (centres unmarked) [NAE-EH, N-(2-Ethylhexanoyl)-2-aminoethanol] | 1.63 | 19.73 | 1.8 | 7.69 ± 1.16 | 95 | – | – | – | – | – | – | – | –
CCCC(=O)NCCO [NAE-4:0, N-Butyroyl-2-aminoethanol] | 2.00 | 23.49 | 1.9 | 7.15 ± 1.16 | 88 | ethylene-like activity | cytokinin-like activities | ethylene-like activities | – | – | – | – | increase of ethylene production (in words) [2]: effective
c1coc(CNc2ncnc3[nH]cnc23)c1 [Kinetin, kinetin, reference compound] | 0.81 | 25.78 | 1.8 | 27.26 ± 2.88 | 336 | – | – | – | 1.2 | 23.74 ± 7.92 | 169 | – | –
O=C(NCCO)c1ccccc1 [NAE-Bz, N-Benzoyl-2-aminoethanol] | 1.77 | 20.87 | 1.8 | 7.36 ± 1.00 | 91 | – | – | – | – | – | – | – | –
CCCCCCCCCCCCCCCCCC(=O)NCCO [NAE-18:0, N-Octadecanoyl-2-aminoethanol] | 1.85 | 22.42 | 1.9 | 7.75 ± 1.01 | 96 | – | – | – | – | – | – | – | –
O=CNCCO [NAE-1, N-Formyl-2-aminoethanol] | 1.62 | 21.19 | 2.0 | 8.68 ± 1.70 | 107 | – | – | ethylene-like activities | 1.7 | 7.61 ± 3.42 | 54 | 45.32 ± 18.98 | Chlorophyll a + b ([1]; Experiment 1, 20 mg/l, 72 h): 0.59; cotyledon expansion (in words) [1, 4]: significantly slowed cotyledon expansion; activity at 20 µg/mL ([2]; experiment 1, 72 h): 175%; activity at 20 µg/mL ([2]; experiment 2, 36 h): 157%; Ethylene [2, 5]: 1034.4 ± 255.3 nL/g FW/h; increase of ethylene production (in words) [2]: effective
CCCCCC(=O)NCCO [NAE-6:0, N-Hexanoly-2-aminoethanol] | 1.73 | 19.80 | 2.0 | 7.02 ± 0.98 | – | ethylene-like activity | – | ethylene-like activities | 1.6 | 8.04 ± 3.86 | – | 40.58 ± 11.85 | Change in fresh weight, % of control ([1]; Experiment 1, 20 mg/l, 72 h): 57%; Chlorophyll a + b ([1]; Experiment 1, 20 mg/l, 72 h): 0.65; Change in fresh weight, % of control ([1]; Experiment 2, 20 mg/l, 48 h): 87%; cotyledon expansion (in words) [1, 4]: significantly slowed cotyledon expansion; Ethylene, % of control ([2]; Experiment 1, 72 h): 210%; Ethylene [2, 5]: 1244.0 ± 406.2 nL/g FW/h; Ethylene, % of control ([2]; experiment 2, 36 h): 141%; relative efficacy on ethylene formation (in words) ([2]; first experiment (Table 4)): strongest effect
CCCCCCCC(=O)NCCO [NAE-8:0, N-Octanoyl-2-aminoethanol] | 1.75 | 22.27 | 1.8 | 8.29 ± 0.72 | 102 | – | – | ethylene-like activities | 1.5 | 13.32 ± 6.40 | 95 | 55.46 ± 31.59 | chlorophyll accumulation (in words) [1, 4]: greater effect than other NAEs; activity at 20 µg/mL ([2]; experiment 1, 72 h): 116%; activity at 20 µg/mL ([2]; experiment 2, 36 h): 193%; Ethylene [2, 5]: 685.2 ± 211.6 nL/g FW/h; relative efficacy on ethylene formation (in words) ([2]; second experiment (Table 5)): strongest effect
CCCCCCCCCCCC(=O)NCCO [NAE-12:0, N-Dodecanoyl-2-aminoethanol] | 1.79 | 23.16 | 2.0 | 8.53 ± 1.59 | – | – | cytokinin-like activities | – | – | – | – | – | activity at 20 µg/mL ([1]; 48 h): 105%
CCCCCCCC/C=C\CCCCCCCC(=O)NCCO [NAE-18:1(Δ9), N-Oleoyl-2-aminoethanol] | 1.99 | 20.29 | 2.0 | 5.78 ± 0.96 | 71 | ethylene-like activity | cytokinin-like activities | ethylene-like activities | – | – | – | – | cotyledon expansion (in words) [1, 3]: slowed cotyledon expansion; increase of ethylene production (in words) [2]: effective
NC1(C(=O)O)CC1 [ACC, 1-aminocyclopropane-1-carboxylic acid, reference compound] | 1.42 | 12.27 | 1.8 | 4.25 ± 0.63 | 52 | – | – | – | 3.7 | 5.54 ± 2.87 | 40 | – | –
CC(=O)NCCO [NAE-2, N-Acetyl-2-aminoethanol] | 1.94 | 19.88 | 2.0 | 5.86 ± 1.36 | 72 | ethylene-like activity | – | ethylene-like activities | 1.3 | 12.52 ± 2.83 | 89 | 45.96 ± 12.53 | chlorophyll accumulation (in words) [1, 4]: greater effect than other NAEs; cotyledon expansion (in words) [1, 3]: slowed cotyledon expansion; activity at 20 µg/mL ([2]; experiment 1, 72 h): 146%; activity at 20 µg/mL ([2]; experiment 2, 36 h): 160%
CCCCCCCCCCCCCCCC(=O)NCCO [NAE-16:0, N-Hexadecanoyl-2-aminoethanol] | 1.44 | 24.18 | 1.7 | 12.42 ± 2.26 | 153 | cytokinin-like activity | cytokinin-like activities | – | – | – | – | – | chlorophyll content per unit mass (in words) [1, 3]: decreased chlorophyll content per unit mass; chlorophyll per cotyledon (in words) [1, 3]: increased chlorophyll per cotyledon
